From PubChem BioAssay AID1549 (Sanford-Burnham Center for Chemical Genomics, 2009)
Activity calls are given as the source filed them. No rule for the calls is given here.

Target: Influenza A virus M2 proton channel (A/TW/4845/1999 H1N1)
Experiment: M2 proton channel binding, NMR based, influenza A virus H1N1 strain (AID 1549)
Conditions: NMR binding screen, M2 protein

For `Cc1n[nH]c(=S)[nH]c1=O`, the Kd was > 4 mM (inactive).

`S=C(c1ccc2c(c1)OCO2)N1CCCC1` was tested, and the Kd was > 4 mM (inactive).

For `CN1C2CC3C[C@H]1C(O3)C2O` (stereo not given in full), the Kd was > 4 mM (inactive).

With `CC1(C)Oc2ccc3ccc(=O)oc3c2CC1O` (stereo not given) the Kd was > 4 mM (inactive).

`Cc1c(F)cccc1NS(=O)(=O)c1ccccc1C#N` was tested, and the Kd was > 4 mM (inactive).

With `C=C1C([C@]2(C)C(CC(=O)OC)[C@@](C)(COC(C)=O)OC(=O)C[C@@H]2OC(C)=O)[C@@H](OC=O)[C@H](OC(=O)C(OC(C)=O)C(C)CC)[C@@]2(C)[C@H](c3ccoc3)CC(=O)C12O` (stereo not given in full) the Kd was > 4 mM (inactive).

In the case of `CC(=O)c1ccc2c(c1)OCCO2`, the Kd is reported as > 4 mM (inactive).

In the case of `NC(=O)CS(=O)(=O)c1ccc2ccccc2c1`, the Kd is reported as > 4 mM (inactive).

`CC(=O)NC1(NC(C)=O)CCN(C)CC1` was tested, and the Kd was > 4 mM (inactive).

In the case of `Cn1c(=O)c2c([nH]c(=O)n2C)n(C)c1=O`, the Kd is reported as > 4 mM (inactive).

`O=C(NCc1ccccn1)c1ccc(Br)s1` was tested, and the Kd was > 4 mM (inactive).

`COC(=O)C1=C(C)N(c2cccc(C(C)=O)c2)C(=O)C1` was tested, and the Kd was > 4 mM (inactive).

With `CCOC(=O)C1CCN(c2ncnc3nc[nH]c23)CC1` the Kd was > 4 mM (inactive).

With `COc1cc([C@@H]2c3cc4c(cc3C(OC3O[C@@H]5COC(C)O[C@H]5[C@H](O)[C@H]3O)C3COC(=O)[C@@H]32)OCO4)cc(OC)c1O` (stereo not given in full) the Kd was > 4 mM (inactive).

With `COc1cc2c(c(OC)c1OC)-c1ccc(OC)c(=O)cc1[C@@H](NC(C)=O)CC2` the Kd was > 4 mM (inactive).

With `COc1ccc(CC(=O)c2ccc(O)cc2O)cc1` the Kd was > 4 mM (inactive).

With `O=C(O)c1ccc(N2CCCCC2)cc1` the Kd was > 4 mM (inactive).

For `COc1ccc(-c2cc3nc4n(c(=O)c3s2)CCC4)cc1`, the Kd was > 4 mM (inactive).

With `Cn1nc(C(=O)Nc2cccnc2)cc1Cl` the Kd was > 4 mM (inactive).

`O=C(Nc1cccnc1)c1ccc(Br)s1` was tested, and the Kd was > 4 mM (inactive).

For `Nc1ncnc(Nc2ccccc2C(F)(F)F)n1`, the Kd was > 4 mM (inactive).

With `Cc1ccnc(NS(=O)(=O)c2cccs2)c1` the Kd was > 4 mM (inactive).

`CC(C)=CC(=O)Nc1ccc(S(N)(=O)=O)cc1` was tested, and the Kd was > 4 mM (inactive).

In the case of `Cc1cccc(CO)n1`, the Kd is reported as > 4 mM (inactive).

In the case of `COc1ccc(NC(=O)C2CC(=O)N=C(N)S2)cc1` (stereo not given), the Kd is reported as > 4 mM (inactive).

In the case of `Nc1ncnc(NCc2cccnc2)c1[N+](=O)[O-]`, the Kd is reported as > 4 mM (inactive).

With `NCc1ccc(N2CCOCC2)cc1` the Kd was > 4 mM (inactive).

`Nc1ccc(S(=O)(=O)Nc2ccc(F)cc2F)cc1` was tested, and the Kd was > 4 mM (inactive).

For `CC(C)c1nnc(N)s1`, the Kd was > 4 mM (inactive).

For `COc1cc(C(=O)O[C@H]2CC[C@@]3(C)[C@@H]4CC[C@H]5[C@]6(O)C[C@H](O)[C@@]7(O)[C@@H](CN8C[C@@H](C)CC[C@H]8[C@@]7(C)O)[C@]6(O)C[C@@]53OC24O)cc(OC)c1OC`, the Kd was > 4 mM (inactive).

With `CC1=CC(C)C(C(=O)O)C(C(=O)N2CCN(C)CC2)C1` (stereo not given) the Kd was > 4 mM (inactive).

In the case of `COc1ncccc1N`, the Kd is reported as > 4 mM (inactive).

In the case of `Cc1noc(C)c1C(=O)N1CCc2ccccc2C1`, the Kd is reported as > 4 mM (inactive).

With `CCNC(=S)Nc1c(C)n(C)n(-c2ccccc2)c1=O` the Kd was > 4 mM (inactive).

With `COCC(=O)Nc1cc2c3c(c1)CCN3C(=O)CC2` the Kd was > 4 mM (inactive).

For `O=C(O)CCSc1nc2ccccc2s1`, the Kd was > 4 mM (inactive).

`CC1(C)CC2(C)N(N)C(=O)CN2C(=S)N1` (stereo not given) was tested, and the Kd was > 4 mM (inactive).

With `CC1CN(C2=NCCN2)CC(C)O1` (stereo not given) the Kd was > 4 mM (inactive).

In the case of `OC[C@@H](O)[C@@H](O[C@@H]1O[C@H](CO)[C@@H](O)[C@H](O)[C@H]1O)[C@H](O)[C@@H](O)CO`, the Kd is reported as > 4 mM (inactive).

`Nc1ncccc1OCc1ccccc1` was tested, and the Kd was > 4 mM (inactive).

With `C=CCn1c(N)c(C(=O)N2CCOCC2)sc1=S` the Kd was > 4 mM (inactive).

In the case of `CSc1nc(=O)[nH]c2c1CCC2`, the Kd is reported as > 4 mM (inactive).

For `CNC(=S)Nc1ncn(Cc2cccc(F)c2)n1`, the Kd was > 4 mM (inactive).

In the case of `c1ccc(Cn2cccc2)nc1`, the Kd is reported as > 4 mM (inactive).

In the case of `O=C(O)C1CCCCN1Cc1ccccc1` (stereo not given), the Kd is reported as > 4 mM (inactive).

With `COc1cc([C@@H]2c3cc4c(cc3[C@H](OC(C)=O)[C@H]3COC(=O)[C@H]23)OCO4)cc(OC)c1OC` the Kd was > 4 mM (inactive).

For `CC(=O)Nc1ccc(C(=O)n2nc(C)cc2C)cc1`, the Kd was > 4 mM (inactive).

With `Cc1ccc(N2NC(=O)CC2=O)cc1C` the Kd was > 4 mM (inactive).

`C[C@H](CCC(=O)O)[C@H]1CCC2C3C(CC[C@@]21C)[C@@]1(C)CC[C@@H](O)C[C@H]1C[C@@H]3O` (stereo not given in full) was tested, and the Kd was > 4 mM (inactive).

`Cc1sc2nc(SCC(=O)N(C)C)[nH]c(=O)c2c1C` was tested, and the Kd was > 4 mM (inactive).

With `O=C1NC(=O)C(C2SC(=O)NC2=O)S1` (stereo not given) the Kd was > 4 mM (inactive).

`CC(=O)Nc1ccc2c(c1)CCC2=O` was tested, and the Kd was > 4 mM (inactive).

`NCC1CN(Cc2ccccc2)CCO1` (stereo not given) was tested, and the Kd was > 4 mM (inactive).

In the case of `Cn1[nH]c2nc3[nH]n(C)c(=O)c3c(-c3ccccc3)c2c1=O`, the Kd is reported as > 4 mM (inactive).

`N/N=C1\CCCc2c1no[n+]2[O-]` was tested, and the Kd was > 4 mM (inactive).

`NC(=O)CC1NC(=O)c2ccccc21` (stereo not given) was tested, and the Kd was > 4 mM (inactive).

For `O=C(O)c1[nH]nc2c1COc1ccccc1-2`, the Kd was > 4 mM (inactive).

`NCc1nc2ccccc2s1` was tested, and the Kd was > 4 mM (inactive).

`CC1Cc2nc(SCC(N)=O)n(C)c(=O)c2S1` (stereo not given) was tested, and the Kd was > 4 mM (inactive).

In the case of `OCn1nnn(-c2ccccc2)c1=S`, the Kd is reported as > 4 mM (inactive).

For `CN(C)S(=O)(=O)N1CCc2ccccc21`, the Kd was > 4 mM (inactive).

In the case of `c1ccc(NCc2nc(-c3ccccc3)no2)cc1`, the Kd is reported as > 4 mM (inactive).

`CC1(C)N([O-])c2cc([N+](=O)[O-])ccc2[N+]1=O` was tested, and the Kd was > 4 mM (inactive).

In the case of `NC(=O)CN=Cc1c(O)[nH]c2ccccc12`, the Kd is reported as > 4 mM (inactive).

In the case of `CC1=C/C(=C\c2c(O)[nH]c(=O)[nH]c2=O)C(C)=N1`, the Kd is reported as > 4 mM (inactive).

With `CCOC(=O)c1c(C)cc(O)cc1O` the Kd was > 4 mM (inactive).

In the case of `COc1cc(O)c(C)c(O)c1`, the Kd is reported as > 4 mM (inactive).

For `Nc1cccc2nonc12`, the Kd was > 4 mM (inactive).

`Nc1ccc(NC(=O)c2ccco2)c(Cl)c1` was tested, and the Kd was > 4 mM (inactive).

For `CCC(/C=C/[C@@H](C)[C@H]1CCC2C3CC=C4C[C@@H](O)CC[C@]4(C)C3CC[C@@]21C)C(C)C` (stereo not given in full), the Kd was > 4 mM (inactive).

For `OCc1ccc2c(c1)OCCO2`, the Kd was > 4 mM (inactive).

`C[C@H](CCC(=O)O)[C@H]1CCC2C3C(CC[C@@]21C)[C@@]1(C)CC[C@@H](O)C[C@H]1C[C@H]3O` (stereo not given in full) was tested, and the Kd was > 4 mM (inactive).

`O=C(Nc1ccccc1)c1cccc(N2C(=O)CCC2=O)c1` was tested, and the Kd was > 4 mM (inactive).

`Cc1ccc(S(=O)(=O)CC(=O)N(C)C)cc1` was tested, and the Kd was > 4 mM (inactive).

For `O=C(O)c1cncc(-c2ccccc2)c1`, the Kd was > 4 mM (inactive).

With `CSc1ccc(C(=S)N2CCN(C)CC2)cc1` the Kd was > 4 mM (inactive).

With `Cc1c(N=Cc2ccc[nH]2)c(=O)n(-c2ccccc2)n1C` the Kd was > 4 mM (inactive).

`COc1ccc(S(=O)(=O)NCCO)cc1` was tested, and the Kd was > 4 mM (inactive).

`NC1CN2CCC1CC2` (stereo not given) was tested, and the Kd was > 4 mM (inactive).

With `COc1ccccc1NC(C)=O` the Kd was > 4 mM (inactive).

For `COC(=O)CCSCC(=O)Nc1nccs1`, the Kd was > 4 mM (inactive).

In the case of `CC1CCN(C(=S)c2ccccc2O)CC1`, the Kd is reported as > 4 mM (inactive).

`C[C@@H]1C(=O)OC2[C@H](O)C34[C@@H]5OC(=O)[C@@]3(O[C@@H]3OC(=O)[C@H](O)[C@@]34[C@H](C(C)(C)C)[C@H]5O)[C@]21O` (stereo not given in full) was tested, and the Kd was > 4 mM (inactive).

With `CC(C)=NNC(=O)C(=O)Nc1ccc(F)cc1` the Kd was > 4 mM (inactive).

`CC(=O)O[C@H]1CC[C@@]2(C)C(CC[C@]3(C)C2C(=O)C=C2C4[C@@H](C)[C@H](C)CC[C@]4(C(=O)O)CC[C@]23C)C1(C)C` (stereo not given in full) was tested, and the Kd was > 4 mM (inactive).

For `c1ccc2c(NC3=NCCS3)cccc2c1`, the Kd was > 4 mM (inactive).

In the case of `O=C(O)C1CN(Cc2ccccc2)CCO1` (stereo not given), the Kd is reported as > 4 mM (inactive).

With `CC(CCC(=O)O)[C@H]1CCC2C3C(C[C@H](O)[C@@]21C)[C@@]1(C)CC[C@@H](O)C[C@H]1C[C@H]3O` (stereo not given in full) the Kd was > 4 mM (inactive).

For `O=[N+]([O-])c1ccc2c(c1)N([O-])C1(CCCCC1)[N+]2=O`, the Kd was > 4 mM (inactive).

In the case of `Cc1ccc(C(=O)N2CC(=O)NC(=O)C2)cc1`, the Kd is reported as > 4 mM (inactive).

In the case of `Cc1cc(C(=O)Nc2sc(C)c(C)c2C#N)no1`, the Kd is reported as > 4 mM (inactive).

With `Nc1ccc2c(c1)COc1ccccc1O2` the Kd was > 4 mM (inactive).

With `Cc1cc(C)n(S(=O)(=O)c2ccc(C(C)(C)C)cc2)n1` the Kd was > 4 mM (inactive).

For `O=C(O)C1CC2CC1CCC2O` (stereo not given), the Kd was > 4 mM (inactive).

For `CC(=O)NC(=S)Nc1nc2ccccc2n1C(C)=O`, the Kd was > 4 mM (inactive).

For `NC1=NC(=O)C(Cc2ccccc2)S1` (stereo not given), the Kd was > 4 mM (inactive).

In the case of `Cc1ccc(N2CCN(C(=O)c3ccccc3)CC2)c(C)c1`, the Kd is reported as > 4 mM (inactive).

`Cc1occc1C(=O)Nc1ccc2c(c1)CCC2` was tested, and the Kd was > 4 mM (inactive).

For `Cc1nc2cc(NC(=O)Nc3nccs3)ccc2n1C`, the Kd was > 4 mM (inactive).

`CC(=O)NC(C)(C)C1CC=C(C)/C(=N\O)C1` (stereo not given) was tested, and the Kd was > 4 mM (inactive).

`CCOC(=O)c1c(C)cc(OC)cc1O` was tested, and the Kd was > 4 mM (inactive).

`CC1(C)CC23C(=O)CCC(O)C2(C)CCC13` (stereo not given) was tested, and the Kd was > 4 mM (inactive).

`O=S(=O)(NCc1ccco1)c1cccc2cccnc12` was tested, and the Kd was > 4 mM (inactive).

In the case of `COC(=O)CC1SC(=O)NC1=O` (stereo not given), the Kd is reported as > 4 mM (inactive).

`Oc1cc(O)cc(/C=C/c2ccccc2)c1` was tested, and the Kd was > 4 mM (inactive).

In the case of `CCCCn1c(S(=O)(=O)O)nc2ccccc21`, the Kd is reported as > 4 mM (inactive).

For `COC(=O)C1CCc2ccccc2N1` (stereo not given), the Kd was > 4 mM (inactive).

`Cn1c(-c2ccccc2F)n[nH]c1=S` was tested, and the Kd was > 4 mM (inactive).

With `CC(=O)c1ccc(NC(=O)c2ocnc2C)cc1` the Kd was > 4 mM (inactive).

For `Cc1occc1C(=O)Nc1nnc(C(F)(F)F)s1`, the Kd was > 4 mM (inactive).

For `NC(=O)CSc1nnc2ccc3ccccc3n12`, the Kd was > 4 mM (inactive).

In the case of `CN1CCC(N(C)Cc2cccnc2)CC1`, the Kd is reported as > 4 mM (inactive).

`CSc1nc(NC(C)C)nc(N2CCOCC2)n1` was tested, and the Kd was > 4 mM (inactive).

In the case of `NCCNC(=S)Nc1ccccc1`, the Kd is reported as > 4 mM (inactive).

In the case of `O=C(O)C1CC(=O)N(Cc2ccco2)C1` (stereo not given), the Kd is reported as > 4 mM (inactive).
